Earlier results on two compounds are cited in US20040253138A1, “Plasmon enhanced body treatment and bacterial management” (American Environmental Systems, Inc., priority 2003, published 2004).

The series relates to E. coli (E. coli-B (SR-9) and E. coli K-12). Conditions: one hour exposure.

Molecules are shown by their SMILES. Like-named read-outs stand apart in the source and are kept apart here.

For `OO` [hydrogen peroxide], the logs of inactivation (30 ppm hydrogen peroxide) is 0.65 logs.

Consider `[Ag+]` [silver], for which the logs of inactivation (30 ppb silver) is given as 2.87 logs.
